In US6600063B1, “Derivatives of phenyl 4-aminosalicylate and method of making the same” (priority 2000, dated 2003):
Converted amounts (≈) assume the structure as drawn.

Tests used:
Assay in all cases: microbe, parasite or virus in culture
Type in all cases: cell-based
[1] = test system: M. tuberculosis strain resistant to rifampin (ATCC 35838); conditions: Mycobacterium tuberculosis, ATCC35838, read-out: MIC RMP-R (ug/ml)
[2] = test system: M. tuberculosis ETA-R strain; conditions: Mycobacterium tuberculosis, read-out: MIC ETA-R (ug/ml)
[3] = test system: M. tuberculosis strain resistant to isoniazid (ATCC 35822); conditions: Mycobacterium tuberculosis, ATCC35822, read-out: MIC INH-R (ug/ml)
[4] = test system: M. tuberculosis EMB-R strain; conditions: Mycobacterium tuberculosis, read-out: MIC EMB-R (ug/ml)

Work on `O=C(Oc1ccccc1)c1ccc(NC(=S)Nc2ccccc2)cc1O` [SAMPLE ID 131326] yielded an MIC [1] of 0.2 µg/mL (≈ 0.549 µM), an MIC [2] of 0.2 µg/mL (≈ 0.549 µM) and an MIC [3] of no more than 0.1 µg/mL. The MIC [4] was 0.2 µg/mL (≈ 0.549 µM).
